Experimental data as given in patent US11667552B2, “Silver ion biocide delivery system” (priority 2018, dated 2023).

Experiments:
[1] = Silver ion concentration in effluent of water passed through a packed bed of silver material
Text: In this method, water is passed through a bed of silver chloride which releases silver chloride into the water stream as it flows through the bed.

[2] = Excerpt: Another method of releasing silver ion in a water stream is the use of metal oxides, carbonates, and salts containing silver. These metal salts may include, but are not limited to, metal oxides, metal halides, or metal salts containing silver, and/or metallic silver, or a combination, mixture or alloy of metals containing silver.
Certain embodiments can be designed with internal design elements to compensate for decreasing volume of material as it is used during operation, without the need to use springs and associated hardware.

Row | SMILES | Effluent Conc. Range Packed Bed (ug Ag^+/l) [1] [µg/L] | silver ion in effluent from the AgCl bed ([1]; typical, depends on material morphology, temperature, pH) | Max Theoretical Conc (ug salt/L) [2] | theoretical solubility limit [2]
1 | [Cl][Ag] [Silver Chloride] | 200 to 800 | about 100 μg/l | 1,900 ug/l | about 3 mg/l
2 | [Br][Ag] [Silver Bromide] | 5 to 100 |  |  | 
